Key:
[1] = system: HBV; assay: HBV antiviral activity in HBV-infected PHH (overall; HBsAg and HBeAg over time); assay type: cell-based, Hepatitis B virus
Procedure: (§1) Approximately 24 hours after plating, PHH were infected with HepAD38-derived GTD virus at 500 viral genome equivalents per cell in maintenance medium supplemented with 4% PEG 8000 (Promega, Madison, WI; V3011). For patient sera infections, PHH were infected with 6 μl of patient sera in maintenance medium supplemented with 4% PEG 8000. Infections were allowed to proceed for 20–24 hours before removing remaining extracellular virions by washing with maintenance medium three times.
For the pulse dose regimen, medium containing compound was removed after two hours incubation and replaced with fresh maintenance medium every three to four days. Cells in the pulse dose experiment received only one dose of compound (Day = 0).
(§2) Hepatitis B e antigen (HBeAg) and Hepatitis B surface antigen (HBsAg) were detected in culture media at the indicated time by ELISA or electrochemiluminescence assay (MSD). The HBeAg and HBsAg ELISAs were performed using the HBeAg ELISA kit (International Immuno-Diagnostics, Foster City, CA) and HBsAg ETI-MAK-2 plus kit (DiaSorin, Stillwater, MN), respectively according to the manufacturer’s instructions. Concentrations were calculated by interpolation from standard curves with purified HBeAg and HBsAg. The MSD assay was performed according to the manufacturer’s instructions (Meso Scale Diagnostics, Rockville, MD). Briefly, cultured supernatants were inactivated with 0.5% Triton X-100 (30 minutes at 37°C) and then transferred into plates pre-spotted with both an anti-HBeAg antibody (Genway Bio, San Diego, CA) and a custom anti-HBsAg antibody. The plates were then incubated for two hours at room temperature with gentle shaking, followed by a wash step in PBS with 0.5% Tween. MSD sulfate tags anti-A and anti-B (1 μg/mL each) were then added to the wells and the plates incubated for a further two hours at room temperature with gentle shaking, followed by another wash step in PBS with 0.5% Tween. A 2X solution of MSD T Buffer Read was then added and the plate was read on a Sector Imager 6000 plate scanner.

[2] = system: HBV; assay: Intracellular HBV RNA (vRNA) by qRT-PCR in HBV-infected PHH; assay type: cell-based; conditions: Hepatitis B virus
Procedure: as §1, with “times. […]” for “times.”
Intracellular HBV viral RNA was isolated from PHH using the RNeasy 96 kit (Qiagen, 74182) following the manufacturer’s recommended protocol. Briefly, 125 μl of Qiagen RLT lysis buffer was added to PHH. The PHH lysate was then thoroughly mixed with 125 μl of 70% ethanol, transferred into a RNeasy 96 well plate, and placed onto a vacuum manifold (Qiagen; 19504). The plate was washed using RW1 and RPE buffers, followed by centrifugation (Sigma-Aldrich, Model 4-16S) at 6000 rpm for 2 minutes. The RNA was then eluted twice with 60 μl of nuclease free water for a total of 120 μl RNA.
After elution, DNase digestion by Turbo DNase (Thermo Fisher Scientific; AM2239) was performed to remove any contaminating DNA. After 30 minutes of DNase treatment at 37°C, Turbo DNase was inactivated by adding 15 mM of EDTA and heating the reaction to 75°C for 10 minutes in a thermo cycler (Thermo Fisher Scientific; Veriti 96 Well Thermal Cycler).
GAPDH or RPLP0 mRNA expression was used to normalize target gene expression. Levels of HBV RNA for all donors were calculated as fold change relative to no drug treated sample using the 2-ΔΔCt method.
(§3) Antiviral activity of test compounds was determined from vRNA, vDNA, HBeAg, and HBsAg data by comparing compound-treated PHH to DMSO (vehicle)-treated PHH to generate a percent of DMSO control value (% DMSO control). The % DMSO control was calculated by the following equation: %DMSOControl=100xXc/XD where Xc is the signal from the compound-treated PHH and XD is the signal from the DMSO-treated PHH. The % DMSO control for vRNA, vDNA, HBeAg, HBsAg, GAPDH, or RPLP0 was plotted versus the log of each compound concentration in GraphPad Prism (version 6; Graphpad Software, LaJolla, CA) to generate dose-response curves. […] Dose-response curves were fitted using the nonlinear regression equation “log(agonist) versus response–variable slope (four parameters)” in GraphPad Prism to determine EC50 values.

[3] = Cytotoxicity in HBV-infected PHH (50% decrease in GAPDH or RPLP0); assay type: cell-based, human; conditions: human, HBV-infected primary human hepatocytes (PHH); for CC50 at 14 days: PHH donor Hu8181, treated every three to four days for 14 days
[4] = system: PHH; assay: as above; assay type: cell-based, human; conditions: treated every three to four days for 14 days
[5] = system: HBV; assay: Secreted HBeAg by immunoassay in HBV-infected PHH; assay type: cell-based; conditions: Hepatitis B virus
Procedure: as §1, with “times. […]” for “times.”
as §2, §3

[6] = Cytotoxicity CC50, PBMC; assay type: cell-based; conditions: human, PBMC (peripheral blood mononuclear cells)
Text: (§4) a Values represent the geometric mean and multiplicative standard deviation of 3 – 5 primary human hepatocyte (PHH) donors or 5 – 10 independent experiments.
(§5) b MT-4: human T-lymphoblastoid cell line; PBMC: peripheral blood mononuclear cell; Gal-HepG2: galactose adapted human hepatoblastoma cell line; Huh-7: human hepatoma cell line; Gal-PC3: galactose adapted human prostate carcinoma cell line; MRC-5: Medical Research Council 5 embryonal lung fibroblast; NRVM: neonatal rat ventricular cardiomyocytes

[7] = Cytotoxicity CC50, Huh-7; assay type: cell-based; conditions: human, Huh-7 cells (hepatoma cell line)
Text: as §4, §5

[8] = Cytotoxicity CC50, Gal-PC3; assay type: cell-based; conditions: human
Text: as §4, §5

[9] = Cytotoxicity CC50, Gal-HepG2; assay type: cell-based; conditions: human, Gal-HepG2 cells (galactose adapted hepatoblastoma cell line)
Text: as §4, §5

[10] = read-out: vRNA EC50, PHH donor BCD, HBV GTD, treated every three to four days for 14 days
[11] = read-out: vRNA EC50, PHH donor Hu276, HBV GTD, treated every three to four days for 14 days
[12] = read-out: vRNA EC50, PHH donor Hu349, HBV GTD, treated every three to four days for 14 days
[13] = read-out: vRNA EC50, PHH donor Hu4167, HBV GTD, treated every three to four days for 14 days
[14] = read-out: vRNA EC50, PHH donor Hu7272, HBV GTD, treated every three to four days for 14 days
[15] = read-out: vRNA EC50, PHH donor Hu8130, HBV GTD, treated every three to four days for 14 days
[16] = read-out: vRNA EC50, PHH donor Hu8181, HBV GTD, treated every three to four days for 14 days
[17] = read-out: HBeAg EC50, PHH donor BCD, HBV GTD, treated every three to four days for 14 days
[18] = read-out: HBeAg EC50, PHH donor Hu276, HBV GTD, treated every three to four days for 14 days
[19] = read-out: HBeAg EC50, PHH donor Hu349, HBV GTD, treated every three to four days for 14 days
[20] = read-out: HBeAg EC50, PHH donor Hu4167, HBV GTD, treated every three to four days for 14 days
[21] = read-out: HBeAg EC50, PHH donor Hu7272, HBV GTD, treated every three to four days for 14 days
[22] = read-out: HBeAg EC50, PHH donor Hu8130, HBV GTD, treated every three to four days for 14 days
[23] = read-out: HBeAg EC50, PHH donor Hu8181, HBV GTD, treated every three to four days for 14 days
[24] = 10 μM every three to four days, three PHH donors

SMILES | EC50 [2, 10] | EC50 [2, 11] | EC50 [2, 12] | EC50 [2, 13] | EC50 [2, 14] | EC50 [2, 15] | EC50 [2, 16] | CC50 at 14 days [3] | CC50 ([4]; PHH donor Hu276) | CC50 ([4]; PHH donor Hu349) | CC50 ([4]; PHH donor Hu4167) | CC50 ([4]; PHH donor Hu7272) | CC50 ([4]; PHH donor Hu8130) | CC50 ([4]; PHH donor) | EC50 [5, 17] | EC50 [5, 18] | EC50 [5, 19] | EC50 [5, 20] | EC50 [5, 21] | EC50 [5, 22] | also measured
CCOC(=O)c1cc(CNCC(=O)N(CC)CCN(C)C)ncc1Br [GS-420] | > 10 µM | > 10 µM | > 10 µM | > 10 µM | > 10 µM | > 10 µM | > 10 µM | > 10 µM | > 10 µM | > 10 µM | > 10 µM | > 10 µM | > 10 µM | > 10 µM | > 10 µM | > 10 µM | > 10 µM | > 10 µM | > 10 µM | > 10 µM | HBV antiviral activity in PHH ([1]; concentrations up to 10 μM): did not exhibit HBV antiviral activity; EC50 [5, 23]: > 10 µM
CCN(CCN(C)C)C(=O)CNCc1cc(C(=O)O)ccn1 [GS-080] | – | – | – | – | – | – | – | – | – | – | – | – | – | – | – | – | – | – | – | – | CC50 [6]: > 44 µM; CC50 [7]: > 44 µM; CC50 [8]: > 44 µM; CC50 [9]: > 44 µM
CCOC(=O)c1ccnc(CNCC(=O)N(CC)CCN(C)C)c1 [GS-5801] | 0.034 µM | 0.042 µM | 0.43 µM | 0.047 µM | 0.93 µM | 1.1 µM | 0.16 µM | > 10 µM | > 10 µM | > 10 µM | > 10 µM | > 10 µM | > 10 µM | > 10 µM | 0.014 µM | 0.1 µM | 0.38 µM | 0.15 µM | 0.61 µM | 1.1 µM | time course throughout which antiviral activity was maintained [1, 24]: 30 to 32 days; time to maximal HBsAg and HBeAg inhibition after initiation of treatment [1, 24]: 12 to 17 days; time inhibition of HBeAg and HBsAg was sustained following a pulse dose ([1]; single two-hour pulse dose, 10 μM, donor): up to 20 days; EC50 ([2]; 336 h, read-out: EC50 range across genotypes, intracellular HBV RNA, range across genotypes, 14 days of dosing): 0.051 to 2.7 µM; EC50 ([2]; 336 h, read-out: EC50 range for intracellular RNA, range over the seven PHH donors tested, HBV GTD, Day 14): 0.034 to 1.1 µM; EC50 ([2]; read-out: vRNA EC50, PHH infected with HBV GTA, treated every three to four days for 13 days): 1.8 µM; EC50 ([2]; read-out: vRNA EC50, PHH infected with HBV GTC, treated every three to four days for 13 days): 0.051 µM; EC50 ([2]; read-out: vRNA EC50, PHH infected with HBV GTD, treated every three to four days for 13 days (Table 3)): 0.43 µM; EC50 ([2]; read-out: vRNA EC50, PHH infected with HBV GTE, treated every three to four days for 13 days): 2.7 µM; CC50 ([3]; the seven PHH donors tested): > 10 µM; CC50 [6]: > 44 µM; CC50 [7]: > 44 µM; CC50 [8]: > 44 µM; EC50 ([5]; 336 h, read-out: EC50 range across genotypes, secreted HBeAg, range across genotypes, 14 days of dosing): 0.3 to 1.4 µM; EC50 ([5]; 336 h, read-out: EC50 range for secreted HBeAg, range over the seven PHH donors tested, HBV GTD, Day 14): 0.014 to 1.1 µM; EC50 [5, 23]: 0.11 µM; EC50 ([5]; read-out: HBeAg EC50, PHH infected with HBV GTA, treated every three to four days for 13 days): 1.1 µM; EC50 ([5]; read-out: HBeAg EC50, PHH infected with HBV GTD, treated every three to four days for 13 days (Table 3)): 0.3 µM; EC50 ([5]; read-out: HBeAg EC50, PHH infected with HBV GTE, treated every three to four days for 13 days): 1.4 µM; CC50 [9]: > 44 µM
